# Measured values: US10519177B2, “Heterocyclic compounds and uses thereof” (Plexxikon Inc., priority 2013, dated 2019)
# Target: BRD4-BD1 (44-164) (Homo sapiens (Human), UniProt O60885)
# Assay: Alphascreen binding assay BRD4-BD1
# Settings: BRD4(1) H4; read-out: Biochemical activity (IC50 μM) BRD4(1) H4
# Description: Binding of compounds of formula (I) with bromodomain 2, 3 4 was assessed using Alphascreen binding assay. The inhibition of the interaction between bromodomain and its acetylated target protein (Filippakopoulos P et al. 2012) was measured quantitatively using recombinant BRD proteins, an acetylated Histone 4 peptide and AlphaScreen™ technology. In absence of inhibition the BRD protein bound to AlphaScreen™ nickel chelate acceptor beads can interact with the acetylated Histone 4 peptide which is immobilized by the AlphaScreen™ Streptavidin coated beads. This interaction brings donor and acceptor beads in proximity. The close proximity allows the singlet oxygen produced by laser excitation of the donor beads to reach the acceptor beads and generate a luminescence signal.
# Recombinant human bromodomains containing the N-terminal bromodomain (BRD2-BD1 (71-194), BRD3-BD1 (24-144) and BRD4-BD1 (44-164)) or dual bromodomains (BRD4-BD12 (1-477), BRD4-BD12 (1-472)) were prepared and purified as described in protein expression and purification session. The peptide is human Histone H41-21K5AcK8AcK12AcK16Ac-Biotin (Anaspec CA, USA).
# Protocol for BRD2, BRD3 and BRD4 assay: All components are prepared in buffer composed of 50 mM HEPES pH 7.5, 100 mM NaCl, 0.01% bovine serum albumin (“BSA”), 0.01% Triton X-100, 2 mM dithiothreitol (“DTT”). 7 μL of Bromodomain protein and 7 μL of peptide are added to wells containing 1 μL of various concentrations of test compounds of formula (I) or DMSO vehicle in an Alphaplate (PerkinElmer GA, USA) and incubated for 1 hour at room temperature. 4 μL donor and acceptor bead mixture is then added with final concentrations of 7.5 μg/ml. 30 minutes after bead addition, Alpha signal is read on the Envision spectrometer (λEx 680 nm, λEm 520-620 nm). Final concentrations of bromodomain proteins and peptide are as shown below.
# All data was normalized to the mean of 16 high and 16 low control wells on each plate. A four parameter curve fit of the following formula was then applied: Y=a+(b−a)/(1+(x/c)^d) Where ‘a’ is the minimum, ‘b’ is the maximum, ‘c’ is the pIC50 and ‘d’ is the Hill slope. Protein Expression and Purification
# Recombinant human bromodomains containing the N-terminal bromodomain (BRD2-BD1 (71-194), BRD3-BD1 (24-144) and BRD4-BD1 (44-164)) or dual bromodomains (BRD4-BD12 (1-477), BRD4-BD12 (1-472)) were expressed in E. coli cells (in a modified pET vector) with an N-terminal six-His tag and purified using a combination of both IMAC (Ni-affinity) and size exclusion chromatography steps.
# Recombinant BRD proteins were expressed using the E. coli strain BL21-CodonPlus (DE3) (Agilent Technologies CA, USA). Cells were grown in Terrific Broth (TB) media to an OD600 of 1.2 at 37° C. at which temperature was reduced to 25° C., protein was induced with 1.0 mM ispropyl-β-D-thiogalactopyranoside (“IPTG”) for 12-18 hours and harvested by centrifugation at 8000×g for 20 minutes. Cells were re-suspended in 0.1M K2PO4 pH 8.0, 250 mM NaCl, 10% Glycerol, 0.75% NP-40, 25 mM Imidazole, 5 mM beta-mercaptoethanol (“BME”) with 0.2 mg/ml Lysosyme, 2.0 mM phenylmethanesulfonyl fluoride (“PMSF”), 25 μg/ml DNAse I, incubated on ice for 30 minutes and lyzed with a cell disruptor (MicroFluidics MA, USA). The lysate was clarified by centrifugation at 20,000×g for 2 hours. The protein was captured with Ni-NTA resin (Life Technologies, USA). Contaminating proteins were washed off with 25 mM Tris-HCl pH 8.3, 250 mM NaCl, 12% Glycerol and 50 mM Imidazole. Following 3× wash steps, protein was eluted step wise using a 50 mM HEPES pH 7.5, 500 mM NaCl and 400 mM Imidazole. The protein was further purified using Gel Filtration column 26/600 Superdex 200 (GE Biosciences NJ, USA) in 50 mM HEPES pH 7.5, 250 mM NaCl. The protein was aliquoted and flash-frozen in liquid Nitrogen.
row,SMILES,IC50 [µM]
1,"CCc1[nH]c2ncc(-c3c(C)noc3C)cc2c1Cc1ccccc1Cl [P-0049, 4-[3-[(2-chlorophenyl)methyl]-2-ethyl-1H-pyrrolo[2,3-b]pyridin-5-yl]-3,5-dimethyl-isoxazole]",< 1
2,"CCc1[nH]c2ncc(-c3c(C)noc3C)cc2c1CC1CCC(F)(F)CC1 [P-0051, 4-[3-[(4,4-difluoro-cyclohexyl)methyl]-2-ethyl-1H-pyrrolo[2,3-b]pyridin-5-yl]-3,5-dimethyl-isoxazole]",< 1
3,"Cc1noc(C)c1-c1cnc2ccn(S(=O)(=O)c3ccccc3F)c2c1 [P-0060, 4-[1-(2-fluorophenyl)sulfonylpyrrolo[3,2-b]pyridin-6-yl]-3,5-dimethyl-isoxazole]",< 1
4,"Cc1ccc(S(=O)(=O)n2ccc3ncc(-c4c(C)noc4C)cc32)s1 [P-0062, 3,5-dimethyl-4-[1-[(5-methyl-2-thienyl)sulfonyl]pyrrolo[3,2-b]pyridin-6-yl]isoxazole]",< 1
5,"Cc1noc(C)c1-c1cnc2[nH]cc(C(C)(C)c3ccc(F)cc3)c2c1 [P-0063, 4-[3-[1-(4-fluorophenyl)-1-methyl-ethyl]-1H-pyrrolo[2,3-b]pyridin-5-yl]-3,5-dimethyl-isoxazole]",< 1
6,"Cc1noc(C)c1-c1cnc2[nH]cc(C(c3ccc(F)cc3)C3CC3)c2c1 (stereo not shown) [P-0064, 4-[3-[cyclopropyl-(4-fluorophenyl)methyl]-1H-pyrrolo[2,3-b]pyridin-5-yl]-3,5-dimethyl-isoxazole]",< 1
7,"Cc1noc(C)c1-c1cnc2ccn(S(=O)(=O)C3CCCCC3)c2c1 [P-0066, 4-(1-cyclohexylsulfonyl-pyrrolo[3,2-b]pyridin-6-yl)-3,5-dimethyl-isoxazole]",< 1
8,"Cc1noc(C)c1-c1cnc2ccn(S(=O)(=O)N3CCCCC3)c2c1 [P-0067, 3,5-dimethyl-4-[1-(1-piperidylsulfonyl)pyrrolo[3,2-b]pyridin-6-yl]isoxazole]",< 1
9,"COC(c1cn(S(=O)(=O)C2CCCCC2)c2cc(-c3c(C)noc3C)cnc12)C1CC1 (stereo not shown) [P-0071, 4-[1-cyclohexyl-sulfonyl-3-[cyclopropyl(methoxy)methyl]pyrrolo[3,2-b]pyridin-6-yl]-3,5-dimethyl-isoxazole]",< 1
10,"COC(c1c[nH]c2ncc(-c3c(C)noc3C)cc12)C1CCC(F)(F)CC1 (stereo not shown) [P-0073, 4-[3-[(4,4-difluorocyclohexyl)-methoxy-methyl]-1H-pyrrolo[2,3-b]pyridin-5-yl]-3,5-dimethyl-isoxazole]",< 1
11,"Cc1noc(C)c1-c1cnc2c(CC3CC3)cn(S(=O)(=O)C3CCCCC3)c2c1 [P-0075, 4-[1-cyclohexylsulfonyl-3-(cyclopropylmethyl)pyrrolo[3,2-b]pyridin-6-yl]-3,5-dimethyl-isoxazole]",< 1
12,"Cc1noc(C)c1-c1cnc2c(I)cn(S(=O)(=O)c3ccccc3)c2c1 [P-0076, 4-[1-(benzenesulfonyl)-3-iodo-pyrrolo[3,2-b]pyridin-6-yl]-3,5-dimethyl-isoxazole]",< 1
13,"Cc1noc(C)c1-c1cnc2c(-c3ccccc3)cn(S(=O)(=O)c3ccccc3)c2c1 [P-0077, 4-[1-(benzenesulfonyl)-3-phenyl-pyrrolo[3,2-b]pyridin-6-yl]-3,5-dimethyl-isoxazole]",< 1
14,"CCS(=O)(=O)n1cc(C(OC)C2CCC(F)(F)CC2)c2cc(-c3c(C)noc3C)cnc21 (stereo not shown) [P-0078, 4-[3-[(4,4-difluoro-cyclohexyl)-methoxy-methyl]-1-ethylsulfonyl-pyrrolo[2,3-b]pyridin-5-yl]-3,5-dimethyl-isoxazole]",< 1
15,"Cc1noc(C)c1-c1cnc2c(-c3cccnc3)cn(S(=O)(=O)c3ccccc3)c2c1 [P-0084, 4-[1-(benzenesulfonyl)-3-(3-pyridyl)pyrrolo[3,2-b]pyridin-6-yl]-3,5-dimethyl-isoxazole]",< 1
16,"Cc1noc(C)c1-c1cnc2[nH]cc(C(c3ccc(F)cc3)(C3CC3)C3CC3)c2c1 [P-0085, 4-[3-[dicyclopropyl-(4-fluorophenyl)methyl]-1H-pyrrolo[2,3-b]pyridin-5-yl]-3,5-dimethyl-isoxazole]",< 1
17,"COC(c1c[nH]c2ncc(-c3c(C)noc3C)cc12)C1CCS(=O)(=O)CC1 (stereo not shown) [P-0089, 4-[[5-(3,5-dimethylisoxazol-4-yl)-1H-pyrrolo[2,3-b]pyridin-3-yl]-methoxy-methyl]thiane 1,1-dioxide]",< 1
18,"Cc1noc(C)c1-c1cnc2c(c1)c(C(O)C1CCSCC1)cn2S(=O)(=O)c1ccccc1 (stereo not shown) [P-0090, [1-(benzenesulfonyl)-5-(3,5-dimethylisoxazol-4-yl)pyrrolo[2,3-b]pyridin-3-yl]-tetrahydrothiopyran-4-yl-methanol]",< 1
19,"Cc1noc(C)c1-c1cnc2[nH]cc(CC3CCS(=O)(=O)CC3)c2c1 [P-0098, 4-[[5-(3,5-dimethylisoxazol-4-yl)-1H-pyrrolo[2,3-b]pyridin-3-yl]methyl]thiane 1,1-dioxide]",< 1
20,"Cc1noc(C)c1-c1cnc2c(-c3cnc(C4CC4)nc3)cn(S(=O)(=O)C3CCCC3)c2c1 [P-0103, 4-[1-cyclopentyl-sulfonyl-3-(2-cyclopropylpyrimidin-5-yl)pyrrolo[3,2-b]pyridin-6-yl]-3,5-dimethyl-isoxazole]",< 1
21,"COc1ncc(-c2cn(S(=O)(=O)c3ccccc3)c3cc(-c4c(C)noc4C)cnc23)cn1 [P-0104, 4-[1-(benzenesulfonyl)-3-(2-methoxypyrimidin-5-yl)pyrrolo[3,2-b]pyridin-6-yl]-3,5-dimethyl-isoxazole]",< 1
22,"COc1ncc(-c2cn(S(=O)(=O)C3CCCC3)c3cc(-c4c(C)noc4C)cnc23)cn1 [P-0105, 4-[1-cyclopentylsulfonyl-3-(2-methoxypyrimidin-5-yl)pyrrolo[3,2-b]pyridin-6-yl]-3,5-dimethyl-isoxazole]",< 1
23,"Cc1noc(C)c1-c1cnc2c(c1)c(CC1CCN(C(=O)C(F)(F)F)CC1)cn2C [P-0106, 1-[4-[[5-(3,5-dimethylisoxazol-4-yl)-1-methyl-pyrrolo[2,3-b]pyridin-3-yl]methyl]-1-piperidyl]-2,2,2-trifluoro-ethanone]",< 1
24,"Cc1noc(C)c1-c1cnc2c(-c3cnn(C)c3)cn(S(=O)(=O)c3ccccc3)c2c1 [P-0110, 4-[1-(benzenesulfonyl)-3-(1-methylpyrazol-4-yl)pyrrolo[3,2-b]pyridin-6-yl]-3,5-dimethyl-isoxazole]",< 1
25,"CCCS(=O)(=O)n1cc(-c2cnn(C)c2)c2ncc(-c3c(C)noc3C)cc21 [P-0111, 3,5-dimethyl-4-[3-(1-methylpyrazol-4-yl)-1-propylsulfonyl-pyrrolo[3,2-b]pyridin-6-yl]isoxazole]",< 1
26,"Cc1noc(C)c1-c1cnc2c(-c3cnn(C)c3)cn(S(=O)(=O)C3CCCC3)c2c1 [P-0112, 4-[1-cyclopentyl-sulfonyl-3-(1-methyl-pyrazol-4-yl)pyrrolo[3,2-b]pyridin-6-yl]-3,5-dimethyl-isoxazole]",< 1
27,"Cc1noc(C)c1-c1cnc2c(c1)c(CC1CCN(C(=O)c3ccccc3)CC1)cn2C [P-0115, [4-[[5-(3,5-dimethylisoxazol-4-yl)-1-methyl-pyrrolo[2,3-b]pyridin-3-yl]methyl]-1-piperidyl]-phenyl-methanone]",< 1
28,"CCNC(=O)N1CCC(Cc2cn(C)c3ncc(-c4c(C)noc4C)cc23)CC1 [P-0117, 4-[[5-(3,5-dimethylisoxazol-4-yl)-1-methyl-pyrrolo[2,3-b]pyridin-3-yl]methyl]-N-ethyl-piperidine-1-carboxamide]",< 1
